This note sets out measurements from ChEMBL document CHEMBL1201862, “PubChem BioAssay data set” (2004).

Broadly, the EC50 is the midpoint of the concentration-response curve. As a reminder, the AC50 is the midpoint of the concentration-response curve, whichever way the signal moves.

The source made the active and inactive calls. For most assays here, no stated cut-off is given here; in the data, actives have a measured EC50 and inactives only a lower limit.

Assay [1] in a line: alpha-synuclein stem-loop luciferase translation blockers – H4 neuroglioma cells, luminescence, confirmation (AID 1988). Format: functional, cell-based.
Assay [2] in a line: luciferase reporter signal suppression in cells – H4 neuroglioma cells, luminescence, dose response (AID 1990). Type of assay: functional, cell-based. In general terms: A reporter such as luciferase makes a cellular process visible.
Assay [3] in a line: Luminescence Cell-Based Dose Response HTS to Identify Inhibitors of 5'UTR Stem-Loop Driven Prion Protein mRNA Translation in H4 Neuroglioblastoma Cells. [Related pubchem assays: 1827 (Project Summary), 1813 (Primary HTS)]. Type of assay: functional.
Assay [4] concerns Streptococcus sp. 'group A'. Nature of the assay: Streptococcus pyogenes SK(-)GAS viability under kanamycin – luminescence, BacTiterGlo, confirmation, counter-screen for streptokinase expression inhibitor project, dose response (AID 1900). Format: functional, organism-based.
The next assay concerns Streptococcus. Nature of the assay: GAS UMAA2166 growth inhibition – luminescence, BacTiterGlo, counter-screen for streptokinase expression inhibitor project, dose response (AID 1915).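 Further: potency for reduction of bacterial viability or growth.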 Type of assay: functional, organism-based. In general terms: A counterscreen serves to expose hits that act by an unwanted route or on another target.
Another assay deals with T1, Streptokinase A (Streptococcus pyogenes serotype M1, UniProt P10520).
T1 sequence (P10520 whole entry): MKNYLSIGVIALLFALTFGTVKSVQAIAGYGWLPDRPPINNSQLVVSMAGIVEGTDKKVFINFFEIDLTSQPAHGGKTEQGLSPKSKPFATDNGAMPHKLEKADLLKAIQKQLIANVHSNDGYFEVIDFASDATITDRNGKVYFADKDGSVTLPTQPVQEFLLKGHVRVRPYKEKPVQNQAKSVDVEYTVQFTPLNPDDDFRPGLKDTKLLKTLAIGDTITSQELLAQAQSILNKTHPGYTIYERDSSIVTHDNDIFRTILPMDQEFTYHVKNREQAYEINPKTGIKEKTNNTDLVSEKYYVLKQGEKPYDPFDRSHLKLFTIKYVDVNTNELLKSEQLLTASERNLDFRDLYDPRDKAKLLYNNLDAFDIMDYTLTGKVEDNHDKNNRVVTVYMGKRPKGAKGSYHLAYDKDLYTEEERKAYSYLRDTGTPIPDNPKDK
Nature of the assay: viability-normalized secreted streptokinase activity reduction – plasminogen activation absorbance, OD405, dose response (AID 1914).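 Further: secreted streptokinase activity via plasminogen activation per viability signal from cell pellet.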 Format: functional, Streptococcus pyogenes M1 GAS.

In another assay the target is Cytochrome P450 3A4 (Homo sapiens, UniProt P08684).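 Further: CYP3A4 tested as one member of a cytochrome P450 panel screen.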
Cytochrome P450 3A4, sequence (P08684 whole entry): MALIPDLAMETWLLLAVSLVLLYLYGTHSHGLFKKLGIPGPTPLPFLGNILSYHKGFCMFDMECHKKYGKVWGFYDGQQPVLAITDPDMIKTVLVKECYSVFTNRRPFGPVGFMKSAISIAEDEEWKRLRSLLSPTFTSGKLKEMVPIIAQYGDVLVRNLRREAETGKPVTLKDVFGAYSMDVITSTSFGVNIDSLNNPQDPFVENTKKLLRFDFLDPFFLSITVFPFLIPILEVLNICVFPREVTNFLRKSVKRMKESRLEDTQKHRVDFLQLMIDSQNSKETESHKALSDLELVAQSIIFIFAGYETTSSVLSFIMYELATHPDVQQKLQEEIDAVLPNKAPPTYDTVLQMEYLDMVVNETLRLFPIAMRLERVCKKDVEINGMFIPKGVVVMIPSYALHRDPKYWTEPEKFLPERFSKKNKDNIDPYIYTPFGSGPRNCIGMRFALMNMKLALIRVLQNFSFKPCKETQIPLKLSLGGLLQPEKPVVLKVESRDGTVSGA

For `COc1ccc(NC(=O)CN2C(=O)COc3ccc(S(=O)(=O)N4CCCCCC4)cc32)cc1`, the EC50 in assay [1], in assay [2] and in assay [3] was > 120 µM (not active) each time.
Regarding `CCCOc1ccc(Cc2c(Cl)nc(SC)nc2N(C)C)cc1`, the EC50 is 20.8 µM (active) in assay [4], > 150 µM (not active) in the assay on Streptococcus and 24.5 µM (active) on Streptokinase A.
Regarding `CCn1c(SCc2cc(O)nc3ccccc23)nnc1C1CC1`, the concentration for a half-maximal effect (EC50) in assay [1], in assay [2] and in assay [3] was > 120 µM (not active) throughout.
In the case of `CCNc1ncc2nc(CCc3ccccc3)c(=O)n(C)c2n1`, the AC50 on Cytochrome P450 3A4 is 31.6 µM (inconclusive).
In the case of `CC1(C)S[C@@H]2[C@H](NC(=O)COc3ccccc3)C(=O)N2C1C(=O)OCC1CCCCC1` (stereo partly drawn), the EC50 in assay [4] was 9.95 µM (active); in the assay with Streptococcus, 14 µM (active); on Streptokinase A, > 150 µM (not active).
In the case of `CC(=O)OC[C@H]1O[C@@H](O/N=C(\C)CCN2CCCc3nc(C)c(C)cc32)[C@H](OC(C)=O)[C@@H](OC(C)=O)[C@H]1OC(C)=O`, the AC50 on Cytochrome P450 3A4 is 3.98 µM (inconclusive).
For `CCOc1ccccc1-c1nnc(SCC(=O)NC2CC3CCC2C3)n1CC` (stereo not drawn), the EC50 was 16.7 µM (active) in assay [1], > 120 µM (not active) in assay [2] and > 120 µM (not active) in assay [3].
Regarding `CCOC(=O)c1cccc(NC(=O)Nc2ccc(OCC)cc2)c1`, the EC50 in assay [1] is 9.81 µM (active); in assay [2], 11.2 µM (inconclusive); in assay [3], 10.8 µM (active).
The matching figures for `S=C(c1ccc(-c2ccccc2)cc1)N1CCOCC1`: 9.91 µM (active), 10.9 µM (active) and 15.5 µM (active).
Regarding `CC(=O)N1CCC2(CCCN(c3ccccc3)C2)CC1`, at Cytochrome P450 3A4, the AC50 was 20 µM (inconclusive).
Regarding `Cc1cc(NC(=O)CSc2nc3ccccc3[nH]2)n(-c2ccccc2)n1`, the EC50 in assay [1], in assay [2] and in assay [3] was > 120 µM (not active) in each case.
As to `Cc1ccc(C(=O)NC2CCN(S(=O)(=O)c3ccc(C)cc3)CC2)cc1`, the EC50 in assay [1] is 45.4 µM (active); in assay [2], > 120 µM (not active); in assay [3], 4.43 µM (active).
For `O=C(c1ccc(Cl)cc1)c1cnc(Nc2ccccc2Cl)s1`, the EC50 in assay [4] is 18.9 µM (active); with Streptococcus it was 30.5 µM (active); on Streptokinase A, > 150 µM (not active).
In the case of `NNc1nc(Nc2ccccc2)nc(Nc2ccccc2)n1`, the EC50 in assay [4] is 6.74 µM (active); in the assay with Streptococcus, > 150 µM (not active); on Streptokinase A, 23.5 µM (active).
The like results for `COc1ccc(CCNC(=O)C(=O)Nc2ccc3nc4n(c(=O)c3c2)CCCCC4)cc1OC` were, in that order, 11.3 µM (active), > 150 µM (not active) and > 150 µM (not active).
As to `CCCC/C(=N\CCc1c(C)[nH]c2ccc(OC)cc12)C1=C(O)CC(c2ccccc2)CC1=O` (stereo not drawn), the EC50 is 2.61 µM (active) in assay [1], 9.11 µM (active) in assay [2] and > 120 µM (not active) in assay [3].
Turning to `COc1ccccc1NC(=O)Nc1nc(-c2cccnc2)nc2ccccc12`, the AC50 at Cytochrome P450 3A4 is 0.631 µM (inconclusive).
